This series is described as follows: in vitro. The protocol:
Human visceral preadipocytes were seeded in 96-well white clear bottom plates at 10,000 cells per well in 100 μl pre-adipocyte medium and incubated overnight at 37° C. 5% CO2. On the following day, adipogenic differentiation was induced by addition of 100 μl/well differentiation medium and incubation continued for 5 days. Adipogenic differentiation was verified by microscopic evaluation, addition of adipored reagents and fluorescent measurement at Ex485 nm/Em572 nm. […] Staurosporine (1 μM) and 0.2% DMSO were used as controls. Plates were incubated at 37° C. 5% CO2 for 2, 6 and 24 hours. Following incubation, cytotoxicity was measured using Cell Titer Glo 2.0 (Promega).
Test Item RZL-12 (1-300 μM) was prepared on the day of the testing as 150 mM stock solutions in DMSO. The 150 mM represents a 500×stock of the highest desired tested concentration. The 150 mM stock solution was first serially diluted in DMSO to acquire 500×stock solutions for each of the RZL-012 concentrations. The 500×stock solutions were then diluted 1:25 in medium to acquire 20×intermediate stock solutions. Finally, the 20×intermediate stock solutions were further diluted 1:20 in the assay (on the plate) that included seeded cells.
The 600 μM represents a 20× stock of the highest desired tested concentration. […] Finally, the 20×intermediate stock solutions were further diluted 1:20 in the assay plate that included seeded cells.
Human visceral pre-adipocytes (HPrAD-vis): HPrAD-vis cells (Lonza cat #PT-5005) were thawed at 37° C. and transferred into 50 ml tubes containing pre-adipocytes PGM-2 growth medium (PBM-2, 10% FBS, 1-glutamine, GA-1000). Cells were centrifuged at 300 g for 10 minutes, the supernatant was removed (Leaving about 1 ml of wash medium for not disrupting the cells) and 2 ml fresh PGM-2 medium was added. After resuspension, cells were counted and seeded in T-75 and T25 flasks at a density of 9,000 cells/cm^2 ([…], 225,000 cells/T25 flask). Medium was changed every 2-3 days until reached confluence of 70%.
Cells were sub-cultured only once, as soon as they reached 70% confluence. For this purpose, the culture medium of each flask was removed and cells were washed once with 5 ml PBS. The flask was shaken to ensure that the entire surface was covered and the PBS was removed. Then, 3 ml/T75 flask or 1 ml/T25 flask of fresh dedicated Trypsin/EDTA solution (from Lonza) was added and the flasks were incubated for 3-4 minutes at RT until ˜90% cells were detached. The Trypsin/EDTA solution was then neutralized by addition of 6 ml/T75 flask or 3 ml/T25 flask of full PGM-2 growth medium. Cells were collected in 50 ml tubes and centrifuged 10 minutes at 300 g. The supernatant was removed and the cells were resuspended in 3 ml fresh medium. Cells were then counted using a haemacytometer slide after being diluted 1:2 in trypan blue (SIGMA). For sub-culturing, cells were seeded in new T75 flasks at a density of 9,000 cells/cm^2 containing 15 ml fresh growth medium. Alternatively, the cells were seeded in 96-well culture plates at a density of 10,000 cells/well for the cell treatments.
HPrAD-vis cells: HPrAD-vis passaged once were seeded in 96-well plates as described above (10000cells/well in 100 μl medium) and allowed to settle overnight at 37° C., 5% CO2. Following day, adipogenic differentiation was induced by addition of 100 μl/well differentiation medium and incubated for 5 days. Adipogenic differentiation was verified by microscopic evaluation, addition of adipored reagents and fluorescent measurement at Ex485 nm/Em572 nm. In the morning of day 6, test and reference items were prepared as described above. Cells' medium was replaced with 90 μl fresh differentiation medium. […] Staurosporine (1 μM) and 0.2% DMSO were used as controls. Plates were incubated at 37° C. 5% CO2 for 2, 6 and 24 hours. Following incubation, cell viability was determined using the CellTiter-Gg® viability reagent (Promega) with reading of plates for luminescence. […]

pIC50: −log10 of the molar value.

Drawing on patent publication US20240041827A1, “COMPOSITIONS FOR THE TREATMENT OF FAT RELATED CONDITIONS AND DISORDERS” (priority 2020, published 2024), this text covers IC50 for one compound.

`C[N+](C)(C)CCCCCn1c2ccc(Br)cc2c2cc(Br)ccc21.[Cl-]` [RZL-012, 5-(3,6-dibromo-9H-carbazol-9-yl)-N,N,N-trimethylpentan-1-aminium chloride]: the pIC50 – broadly, the negative decadic logarithm of the IC50, by convention in mol/L – is around 4.52.
